The results in this text go back to patent US9271974B2, “Use of oxycodone for treating visceral pain” (PURDUE PHARMA L.P., priority 2005, dated 2016).

Type in all cases: in vivo, human
In one assay the test system is cutaneous pain. The assay is described as follows: Experimental cutaneous pain (pressure, electrical, thermal stimuli on skin) in healthy volunteers. An excerpt:
(§1) The experimental studies referred to below, are based on a comparison of different drugs at healthy volunteers by applying experimental pain, since clinical studies provide insufficient information, partly due to the great difference that exists between patients and partly due to the fact that most diseases produce many symptoms other than pain, which affects the assessment of pain-killing efficacy. Experimental pain can be administered under controlled conditions in healthy volunteers so that this bias can be avoided. However, several experimental stimuli are necessary to simulate the complex clinical situation. It is also necessary to use different opioids to obtain sufficient differentiated knowledge about deep pain on different pain mechanisms, and an assessment of the clinical action spectrum of opioids. For testing the efficacy of different opioids for treating visceral pain a standardized test battery of cutaneous, muscular and visceral stimuli was applied. Blood samples were taken for determination of the opioid concentration in plasma.
(§2) In recent years methods by which deep and visceral stimuli can be administered reproducibly have been developed. These methods allow activation of the pain system with different stimuli, with the possibility of activating various types of nerve pathways in the same experiment. […]

In a further assay the test system is muscular pain. Kind of assay: Experimental muscular pain (pressure, electrical stimuli in muscle) in healthy volunteers. Particulars: for analgesic effect in muscle versus placebo: oral solution, morphine 30 mg, oxycodone 15 mg, FIG. 1.
From the text: as §1
In recent years methods by which deep and visceral stimuli can be administered reproducibly have been developed. These methods allow activation of the pain system with different stimuli, with the possibility of activating various types of nerve pathways in the same experiment. In the trial described herein the efficacy of different opioids on different types of stimuli of skin, muscles and bowel in healthy volunteers have been compared. Cutaneous and muscular pain was administered by pressure, current and temperature (skin only). The stimulation of the internal organs was also produced by pressure via a balloon located at the bottom of the oesophagus. The balloon can be distended and produce mechanical stimuli, which feel like mild pain/discomfort. In addition, cold and heat stimuli can be administered by passing water of differing temperature through the balloon. […]

Assay [1] relates to visceral pain. Kind of assay: Experimental visceral pain, mechanical stimulation of the oesophagus via balloon distension, in healthy volunteers.
From the text: as §1, §2

In assay [2] the test system is visceral pain. Kind of assay: Experimental visceral pain, heat stimulation of the oesophagus via hot water into the balloon, in healthy volunteers.
From the text: as §1, §2

Where [3] appears, read: oral, morphine 30 mg vs oxycodone 15 mg, all modalities tested.
The mark [4] stands for this setting: oral oxycodone 15 mg vs morphine 30 mg and placebo, FIG. 2.

Regarding `COc1ccc2c3c1O[C@H]1C(=O)CC[C@@]4(O)[C@@H](C2)N(C)CC[C@]314` [oxycodone], in the assay with cutaneous pain (oral solution, morphine 30 mg, oxycodone 15 mg, FIG. 1), the “analgesic effect in the skin versus placebo” value is “significantly more analgesic than placebo”. Further, the “difference in analgesic effect between morphine and oxycodone in the skin” value in the assay on cutaneous pain (setting [3]) is “no significant difference between morphine and oxycodone”. The “analgesic effect in muscle versus placebo” value in the assay on muscular pain is on record as “significantly more analgesic than placebo”. Also, the “difference in analgesic effect between morphine and oxycodone in muscle” value in the assay on muscular pain (setting [3]) is “no significant difference between morphine and oxycodone”. For the same molecule, in the assay on visceral pain [1] (setting [4]), the “analgesic effect against mechanical stimulation in viscera (oesophagus), in comparison to morphine and placebo” value is “significantly better analgesic effect”. Further, in the assay with visceral pain [2] (setting [4]), the “analgesia against heat pain stimulation in viscera (oesophagus), in comparison to morphine and placebo” value is “significantly greater analgesia”.
On to `CN1CC[C@]23c4c5ccc(O)c4O[C@H]2[C@@H](O)C=C[C@H]3[C@H]1C5` [morphine], for which the “analgesic effect in muscle versus placebo” value in the assay with muscular pain is listed as “significantly more analgesic than placebo”. The “analgesic effect against mechanical stimulation in viscera (oesophagus), in comparison to placebo” value in the assay with visceral pain [1] (oral morphine 30 mg vs placebo) is reported as “a certain analgesic effect”. In addition, in the assay with visceral pain [2] (oral morphine 30 mg vs placebo), the “analgesic effect against heat pain stimulation in viscera (oesophagus), in comparison to placebo” value is listed as “a certain analgesic effect”.
